# Measured values as given in patent publication US10259781B2, “Imaging agents” (THE REGENTS OF THE UNIVERSITY OF MICHIGAN, priority 2012, dated 2019).
# Entries after “also recorded” stand apart in the source; their conditions may differ.
# Key:
# [1] = Metabolic breakdown in monkey plasma (reverse-phase HPLC of venous blood samples); type: in vivo, rhesus macaque monkey; conditions: rhesus monkeys
# Protocol: In some of the microPET studies, venous blood samples (e.g., n=6) were drawn to assess the metabolic breakdown of [^18F]4F-MHPG in plasma (see Table 1). Plasma was processed for injection onto a reverse-phase HPLC system equipped with a radiation detector. The percentages of intact parent tracer and radiolabeled metabolites were determined as a function of time. In this system, [^18F]4-MHPG has a retention time Rt of approximately 11.2 minutes while the main polar radiometabolite formed has an Rt of approximately 7.9 minutes.
# [2] = In vitro incubation with monkey liver cytosol fraction and PAPS (sulfur conjugation); type: in vitro ADME
# Protocol: The main radiometabolite formed is more polar than the parent compound, [^18F]4-MHPG. The metabolite has been identified as the sulfur conjugate of [^18F]4-MHPG based on in vitro incubations of the parent compound with a monkey liver cytosol fraction and the required cofactor 3′-phospho-adenosine-5′phosphosulfate (PAPS). After only 1 minute of in vitro incubation, approximately 70% of [^18F]4-MHPG was sulfur conjugated, and after 20 minutes of incubation, 100% was in the sulfur-conjugated form (FIG. 4B). Sulfur conjugation occurs at the meta-hydroxyl group (FIG. 4C). Without being bound by theory and without requiring an understanding of the mechanism to practice the technology, it is contemplated that rapid metabolism of [^18F]4F-MHPG is a reason for its low liver uptake. In comparison, the structurally similar carbon-11 compound, [^11C]guanyl-meta-octopamine (GMO), has a slower metabolic breakdown in monkey plasma, with a T1/2 for breakdown of approximately 13 minutes.
# [3] = target: T1, norepinephrine transporters (NET) (Macaca mulatta, UniProt Q9MYW8); assay: Desipramine (DMI) block of the neuronal uptake of [18F]4F-MHPG, microPET; type: in vivo, rhesus macaque monkey
# T1 construct: from tissue; host or cells: heart (presynaptic sympathetic nerve terminals) of living rhesus macaque monkeys, microPET in vivo
# Source text: Additional data were collected and Patlak analyses performed.
# Orthogonal slice images were acquired for comparison with data from a control study.
# [4] = Human radiation absorbed dose estimates, OLINDA/EXM 1.0, from rat biodistribution
# Protocol: (§1) During the development of embodiments of the technology provided herein, the biodistribution of [^18F]4F-MHPG into the organs of rats was assessed. In particular, four time points (Table 3) were collected and used to derive human radiation absorbed dose estimates using the OLINDA/EXM 1.0 software package (see, e.g., Stabin et al. (2005) “OLINDA/EXM; the second-generation personal computer software for internal dose assessment in nuclear medicine”, J Nucl Med. 46: 1023-7). […] These values were entered into the Dynamic Bladder model of OLINDA/EXM, assuming a 4.0-hour void interval. Organs with the highest absorbed dose estimates included the urinary bladder wall (0.666 rad/mCi), […] (0.221 rad/mCi), small intestine (0.201 rad/mCi), and the heart wall (0.201 rad/mCi). An ‘effective dose’ of 0.091 rem/mCi was estimated for [^18F]4F-MHPG. Under United States Federal Regulations governing research with a new radiopharmaceutical (21 CFR § 361.1), the maximum allowable radiation absorbed dose to an individual organ (other than the gonads) is 5 rad. Considering the maximum estimated absorbed dose (urinary bladder wall; 0.666 rad/mCi), initial PET studies in human subjects could use a maximum of 7.5 mCi of [^18F]4F-MHPG. This would correspond to an ‘effective dose’ of 0.68 rem.
# [5] = MicroPET imaging studies in rats: excretion through the bladder; type: in vivo, rat
# Protocol: as §1
# adrenal glands = assay: Uptake into adrenal glands, microPET; type: in vivo, rhesus macaque monkey; conditions: DMI block of NET
# Source text: To assess the ability of [^18F]4F-MHPG to serve an additional clinical role as a marker of adrenergic tumors such as neuroblastoma and pheochromocytoma, data were collected to examine the uptake of [^18F]4F-MHPG into the adrenal gland. In control studies, the adrenal glands took up sufficient [^18F]4F-MHPG to be visualized, especially on the right side of the transaxial images, which was better separated from the kidney than the contralateral adrenal gland. There was also significant uptake in the cortex of the kidney. The kinetics of [^18F]4F-MHPG in the adrenal gland are very similar to those seen in the heart. In the DMI block study above, the adrenal glands were scanned for 10 minutes following the 90 minute cardiac study.
# T1 sequence (Q9MYW8 1-617): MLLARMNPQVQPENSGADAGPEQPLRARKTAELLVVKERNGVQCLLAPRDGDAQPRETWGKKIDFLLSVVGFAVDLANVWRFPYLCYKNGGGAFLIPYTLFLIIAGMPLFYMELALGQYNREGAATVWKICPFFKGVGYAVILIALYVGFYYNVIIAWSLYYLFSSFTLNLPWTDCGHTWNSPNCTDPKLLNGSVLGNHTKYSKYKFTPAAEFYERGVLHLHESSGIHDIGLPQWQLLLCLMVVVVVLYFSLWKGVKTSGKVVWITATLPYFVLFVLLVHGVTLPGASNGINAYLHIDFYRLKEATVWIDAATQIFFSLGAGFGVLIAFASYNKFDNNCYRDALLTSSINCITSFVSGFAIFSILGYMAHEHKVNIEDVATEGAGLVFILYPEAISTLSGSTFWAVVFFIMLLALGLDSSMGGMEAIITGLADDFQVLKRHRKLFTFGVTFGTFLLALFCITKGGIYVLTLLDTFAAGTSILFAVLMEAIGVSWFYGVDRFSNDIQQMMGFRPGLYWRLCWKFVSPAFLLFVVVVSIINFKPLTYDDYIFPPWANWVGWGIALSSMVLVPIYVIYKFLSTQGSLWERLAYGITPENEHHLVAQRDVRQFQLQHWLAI
smiles,measurement,setting,value
N=C(N)NCCc1ccc(F)c(O)c1 [[^18F]4F-MHPG] [4-[^18F]fluoro-meta-hydroxy-phenethylguanidine],metabolism in plasma,[1],rapidly metabolized
same,fraction sulfur conjugated,[2]; after 1 minute of in vitro incubation,approximately 70%
same,fraction in the sulfur-conjugated form,[2]; after 20 minutes of incubation,100%
same,specificity of myocardial uptake for cardiac sympathetic neurons,[3]; control vs DMI block,100%
same,nonspecific binding in heart tissue,[3]; highest dose DMI block study,very low; also recorded: extremely low
same,effective dose for a maximum of 7.5 mCi,"[4]; initial PET studies in human subjects, 7.5 mCi",0.68 rem
same,Effective dose,[4]; reference adult male model,0.091 rem/mCi
same,"Effective dose, Dose for 10 mCi",[4]; reference adult male model,0.91 rem
same,"Radiation absorbed dose estimate, Dose for 10 mCi, Adrenals",[4]; reference adult male model,0.59 rad
same,"Radiation absorbed dose estimate, Dose for 10 mCi, Brain",[4]; reference adult male model,0.25 rad
same,"Radiation absorbed dose estimate, Dose for 10 mCi, Breasts",[4]; reference adult male model,0.26 rad
same,"Radiation absorbed dose estimate, Dose for 10 mCi, Gallbladder wall",[4]; reference adult male model,0.61 rad
same,"Radiation absorbed dose estimate, Dose for 10 mCi, Heart wall",[4]; reference adult male model,1.09 rad
same,"Radiation absorbed dose estimate, Dose for 10 mCi, Kidneys",[4]; reference adult male model,0.78 rad
same,"Radiation absorbed dose estimate, Dose for 10 mCi, LLI wall",[4]; reference adult male model,1.07 rad
same,"Radiation absorbed dose estimate, Dose for 10 mCi, Liver",[4]; reference adult male model,0.96 rad
same,"Radiation absorbed dose estimate, Dose for 10 mCi, Lungs",[4]; reference adult male model,0.35 rad
same,"Radiation absorbed dose estimate, Dose for 10 mCi, Muscle",[4]; reference adult male model,0.37 rad
same,"Radiation absorbed dose estimate, Dose for 10 mCi, Osteogenic cells",[4]; reference adult male model,0.49 rad
same,"Radiation absorbed dose estimate, Dose for 10 mCi, Ovaries",[4]; reference adult male model,0.88 rad
same,"Radiation absorbed dose estimate, Dose for 10 mCi, Pancreas",[4]; reference adult male model,0.63 rad
same,"Radiation absorbed dose estimate, Dose for 10 mCi, Red marrow",[4]; reference adult male model,0.37 rad
same,"Radiation absorbed dose estimate, Dose for 10 mCi, Skin",[4]; reference adult male model,0.26 rad
same,"Radiation absorbed dose estimate, Dose for 10 mCi, Small intestine",[4]; reference adult male model,2.01 rad
same,"Radiation absorbed dose estimate, Dose for 10 mCi, Spleen",[4]; reference adult male model,0.79 rad
same,"Radiation absorbed dose estimate, Dose for 10 mCi, Stomach wall",[4]; reference adult male model,0.48 rad
same,"Radiation absorbed dose estimate, Dose for 10 mCi, Testes",[4]; reference adult male model,0.41 rad
same,"Radiation absorbed dose estimate, Dose for 10 mCi, Thymus",[4]; reference adult male model,0.33 rad
same,"Radiation absorbed dose estimate, Dose for 10 mCi, Thyroid",[4]; reference adult male model,0.29 rad
same,"Radiation absorbed dose estimate, Dose for 10 mCi, Total body",[4]; reference adult male model,0.41 rad
same,"Radiation absorbed dose estimate, Dose for 10 mCi, ULI wall",[4]; reference adult male model,2.21 rad
same,"Radiation absorbed dose estimate, Dose for 10 mCi, Urinary bladder wall",[4]; reference adult male model,6.66 rad
same,"Radiation absorbed dose estimate, Dose for 10 mCi, Uterus",[4]; reference adult male model,1.03 rad
same,"Radiation absorbed dose estimate, Total dose, Adrenals",[4]; reference adult male model,0.059 rad/mCi
same,"Radiation absorbed dose estimate, Total dose, Brain",[4]; reference adult male model,0.025 rad/mCi
same,"Radiation absorbed dose estimate, Total dose, Breasts",[4]; reference adult male model,0.026 rad/mCi
same,"Radiation absorbed dose estimate, Total dose, Gallbladder wall",[4]; reference adult male model,0.061 rad/mCi
same,"Radiation absorbed dose estimate, Total dose, Heart wall",[4]; reference adult male model,0.109 rad/mCi
same,"Radiation absorbed dose estimate, Total dose, Kidneys",[4]; reference adult male model,0.078 rad/mCi
same,"Radiation absorbed dose estimate, Total dose, LLI wall",[4]; reference adult male model,0.107 rad/mCi
same,"Radiation absorbed dose estimate, Total dose, Liver",[4]; reference adult male model,0.096 rad/mCi
same,"Radiation absorbed dose estimate, Total dose, Lungs",[4]; reference adult male model,0.035 rad/mCi
same,"Radiation absorbed dose estimate, Total dose, Muscle",[4]; reference adult male model,0.037 rad/mCi
same,"Radiation absorbed dose estimate, Total dose, Osteogenic cells",[4]; reference adult male model,0.049 rad/mCi
same,"Radiation absorbed dose estimate, Total dose, Ovaries",[4]; reference adult male model,0.088 rad/mCi
same,"Radiation absorbed dose estimate, Total dose, Pancreas",[4]; reference adult male model,0.063 rad/mCi
same,"Radiation absorbed dose estimate, Total dose, Red marrow",[4]; reference adult male model,0.037 rad/mCi
same,"Radiation absorbed dose estimate, Total dose, Skin",[4]; reference adult male model,0.026 rad/mCi
same,"Radiation absorbed dose estimate, Total dose, Small intestine",[4]; reference adult male model,0.201 rad/mCi
same,"Radiation absorbed dose estimate, Total dose, Spleen",[4]; reference adult male model,0.079 rad/mCi
same,"Radiation absorbed dose estimate, Total dose, Stomach wall",[4]; reference adult male model,0.048 rad/mCi
same,"Radiation absorbed dose estimate, Total dose, Testes",[4]; reference adult male model,0.041 rad/mCi
same,"Radiation absorbed dose estimate, Total dose, Thymus",[4]; reference adult male model,0.033 rad/mCi
same,"Radiation absorbed dose estimate, Total dose, Thyroid",[4]; reference adult male model,0.029 rad/mCi
same,"Radiation absorbed dose estimate, Total dose, Total body",[4]; reference adult male model,0.041 rad/mCi
same,"Radiation absorbed dose estimate, Total dose, ULI wall",[4]; reference adult male model,0.221 rad/mCi
same,"Radiation absorbed dose estimate, Total dose, Urinary bladder wall",[4]; reference adult male model,0.666 rad/mCi
same,"Radiation absorbed dose estimate, Total dose, Uterus",[4]; reference adult male model,0.103 rad/mCi
same,biological half-time of excretion through the bladder,[5],0.20±0.02 hours
same,injected dose excreted through the bladder,[5],19.9±0.2%
same,uptake into the adrenal glands under DMI block,adrenal glands,No uptake; also recorded: completely absent
